Experimental data taken from article PMC5562305, “Impact of novel palmitoylated prolactin-releasing peptide analogs on metabolic changes in mice with diet-induced obesity” (PLoS ONE, 2017).
Starred links: 1 amine or outer side, 2 acyl side, 3 side chain; linkers in the order of their positions; H or OH if unused. Residues, ends and D or L forms follow the SMILES beside them. Groups on a side chain read outwards from the residue. *: point of attachment. TTDA(Palmitoyl) = CCCCCCCCCCCCCCCC(=O)NCCCOCCOCCOCCCN*; Suc = O=C(CCC(=O)[*:2])[*:1]

System: urinary metabolites
Test: NMR-based metabolomics of urine of DIO mice
Assay type: in vivo, C57BL/6 mice
Set-up: key to DMA, Mean / DMG, Mean / MA, Mean / TMA, Mean / acetate, Mean / allantoin, Mean / carnitine, Mean / choline, Mean / cis-aconitate, Mean / creatine+creatinine, Mean / creatine, Mean / creatinine, Mean / ethanolamine, Mean / formate, Mean / galactose, Mean / glucose, Mean / glycine, Mean / lactate, Mean / succinate, Mean / vinylacetylglycine, Mean: TSA-normalized intensity of the metabolite's representative NMR signal
Description: Urine samples for NMR-based metabolomics were collected prior to the start of the interventions and at the end of the experiment. For overnight urine collection (from 5 pm to 8 am), the mice were housed in individual metabolic cages (Tecniplast, Buguggiate, Italy) without access to food. Samples were collected with the addition of NaN3 and stored at -80°C until NMR analysis.
The urine samples were thawed at room temperature and centrifuged at 13 684 x g for 5 min prior to the NMR experiments. A 200-μl aliquot of supernatant was diluted with 340 μl of H2O mixed with 60 μl of phosphate buffer (1.5 M KH2PO4 in D2O containing 2 mM NaN3 and 0.1% trimethylsilyl propionic acid (TSP), pH 7.4) and transferred to a 5-mm NMR tube. The NMR data were acquired with a 600 MHz Bruker Avance III spectrometer (Bruker BioSpin, Rheinstetten, Germany) equipped with a 5-mm TCI cryogenic probe head. All of the experiments were performed at 300 K. Automatic tuning, matching, shimming and adjusting of the 90° pulse length were performed for each sample.
As mouse urine naturally contains urinary proteins, the NMR spectra were acquired using a Carr-Purcell-Meiboom-Gill (CPMG) pulse sequence with water presaturation (Bruker pulse sequence cpmgpr1d) to eliminate the strong protein background. […] For better metabolite identification, a short J-resolved experiment with presaturation (NS = 2, SW = 16 ppm, TD = 8k, number of increments = 40, SW = 78.125 Hz in the indirect dimension, and relaxation delay = 2 s) was executed for all samples. Additional two-dimensional ^1H-^1H correlation spectroscopy (COSY) and ^1H-^13C heteronuclear multiple-quantum correlation (HMQC) experiments (Bruker pulse sequences cosygpprqf and hmqcphpr) were performed for selected samples.
The acquired data were processed using Topspin 3.2 software (Bruker BioSpin, Rheinstetten, Germany). Line broadening of 0.3 Hz was applied on free induction decays (FIDs) prior to Fourier transformation. The spectra were automatically phased, baseline corrected and referenced to the signal of TSP (0.00 ppm).
The assignment of individual metabolites was achieved by comparing the proton spectra with the spectra of pure metabolites using Chenomx NMR Suite 7.6 (Chenomx Inc., Edmonton, AB, Canada), the HMDB database and previously published metabolomic data. The identification of metabolites was supported through J-resolved and COSY experiments and, if possible, confirmed using carbon chemical shifts extracted from the HMQC spectra.
For quantitation of individual metabolites, the CPMG spectra were uniformly binned in the range of 0.10–10.00 ppm to 0.01-ppm intervals using AMIX software (Bruker BioSpin, Rheinstetten, Germany). This procedure reduced the dimensionality of the data, eliminated chemical shift variations and thus simplified the reproducible automatic quantification. Regions corresponding to water (4.60–4.90 ppm) and urea (5.60–6.00 ppm) were removed prior to analysis. As the dilutions of the original urine samples differed (due to the differences in water intake during urine collection), all of the spectra were normalized to the total spectral area (TSA). For each identified metabolite, one representative signal was chosen and then quantified as the sum of appropriate adjacent 0.01-ppm bins to cover the whole signal width. The metabolite concentration was expressed as the TSA-normalized intensity of the respective signal. For selection of an appropriate statistical method (parametric or non-parametric) the Lilliefors test of normality was performed. […] Metabolite alterations with a P < 0.05 were considered statistically significant. Statistical analysis was performed using Matlab software (“MATLAB version 8.6 (R2015b). Natick, Massachusetts: The MathWorks Inc., 2015.,” n.d.). […]

[1] = urine NMR signal, DIO mice, group mean
[2] = urine of DIO mice, NMR metabolomics, difference of analog mean vs saline mean

## CCCCCCCCCCCCCCCC(=O)NCCCOCCOCCOCCCNC(=O)CCC(=O)NCCCC[C@H](NC(=O)[C@@H](NC(=O)[C@H](CCC(=O)O)NC(=O)[C@H](CCSC)NC(=O)[C@H](CO)NC(=O)[C@H](Cc1c[nH]cn1)NC(=O)[C@H](CCCNC(=N)N)NC(=O)[C@H](Cc1c[nH]cn1)NC(=O)[C@@H](NC(=O)[C@H](CCCNC(=N)N)NC(=O)[C@@H](N)CO)[C@@H](C)O)[C@@H](C)CC)C(=O)N[C@H](C(=O)N1CCC[C@H]1C(=O)N[C@@H](CC(=O)O)C(=O)N[C@H](C(=O)N[C@@H](CC(N)=O)C(=O)N1CCC[C@H]1C(=O)N[C@@H](C)C(=O)N[C@@H](Cc1c[nH]c2ccccc12)C(=O)N[C@@H](Cc1ccc(O)cc1)C(=O)N[C@@H](C)C(=O)N[C@@H](CO)C(=O)N[C@@H](CCCNC(=N)N)C(=O)NCC(=O)N[C@H](C(=O)N[C@@H](CCCNC(=N)N)C(=O)N1CCC[C@H]1C(=O)N[C@H](C(=O)NCC(=O)N[C@@H](CCCNC(=N)N)C(=O)N[C@@H](Cc1ccccc1)C(N)=O)C(C)C)[C@@H](C)CC)[C@@H](C)CC)[C@@H](C)O [analog 2] (H-SRTHRHSMEIK([Suc-TTDA(Palmitoyl)])TPDINPAWYASRGIRPVGRF-NH2; N-terminus assumed)
[1]
  2-OG (2.45 ppm), Mean: 11.956
  2-OG (3.01 ppm), Mean: 10.103
  2-PY (8.33 ppm), Mean: 0.992
  3-indoxylsulfate (7.51 ppm), Mean: 1.459
  3-indoxylsulfate (7.71 ppm), Mean: 0.842
  4-PY (7.97 ppm), Mean: 1.710
  4-PY (8.55 ppm), Mean: 0.484
  DMA, Mean: 5.145
  DMG, Mean: 1.928
  MA, Mean: 2.920
  MNA (8.90 ppm), Mean: 0.407
  MNA (8.97 ppm), Mean: 0.391
  MNA (9.265 ppm), Mean: 0.413
  MNA-Nox (7.75 ppm), Mean: 0.969
  MNA-Nox (8.13 ppm), Mean: 0.725
  MNA-Nox (8.49 ppm), Mean: 0.458
  MNA-Nox (8.75 ppm), Mean: 0.434
  N-carbamoylalanine (2.38 ppm), Mean: 10.919
  N-carbamoylalanine (3.31 ppm), Mean: 9.060
  N-isovalerylglycine + oxovalerate (0.92 ppm), Mean: 15.384
  TMA, Mean: 10.220
  acetate, Mean: 4.384
  allantoin, Mean: 21.272
  carnitine, Mean: 6.113
  choline, Mean: 2.053
  cis-aconitate, Mean: 9.014
  citrate (2.55 ppm), Mean: 31.737
  citrate (2.69 ppm), Mean: 28.801
  creatine+creatinine, Mean: 23.782
  creatine, Mean: 6.742
  creatinine, Mean: 11.494
  ethanolamine, Mean: 7.749
  formate, Mean: 0.205
  fumarate, Mean: 0.167
  galactose, Mean: 0.806
  glucose, Mean: 3.486
  glycine, Mean: 6.185
  hexanoylglycine + acids (0.88 ppm), Mean: 15.251
  hippurate (7.55 ppm), Mean: 4.857
  hippurate (7.64 ppm), Mean: 2.465
  hippurate (7.84 ppm), Mean: 5.092
  lactate, Mean: 7.122
  multiplet acids (1.6 ppm), Mean: 12.357
  putrescin, Mean: 8.544
  succinate, Mean: 12.532
  taurine (3.27 ppm), Mean: 20.714
  taurine (3.43 ppm), Mean: 17.197
  trigonelline (8.84 ppm), Mean: 0.310
  trigonelline (9.13 ppm), Mean: 0.125
  vinylacetylglycine, Mean: 3.494
[2]
  2-OG (2.45 ppm), Saline/analog %: 0.017%
  2-OG (3.01 ppm), Saline/analog %: -0.013%
  2-PY (8.33 ppm), Saline/analog %: -0.147%
  3-indoxylsulfate (7.51 ppm), Saline/analog %: 0.120%
  3-indoxylsulfate (7.71 ppm), Saline/analog %: 0.094%
  4-PY (7.97 ppm), Saline/analog %: -0.055%
  4-PY (8.55 ppm), Saline/analog %: -0.165%
  DMA, Saline/analog %: 0.025%
  N-carbamoylalanine (2.38 ppm), Saline/analog %: 0.014%
  N-carbamoylalanine (3.31 ppm), Saline/analog %: -0.045%
  N-isovalerylglycine + oxovalerate (0.92 ppm), Saline/analog %: 0.062%
  TMA, Saline/analog %: -0.159%
  acetate, Saline/analog %: 0.167%
  allantoin, Saline/analog %: 0.054%
  carnitine, Saline/analog %: 0.027%
  choline, Saline/analog %: 0.042%
  cis-aconitate, Saline/analog %: 0.015%
  citrate (2.55 ppm), Saline/analog %: -0.026%
  citrate (2.69 ppm), Saline/analog %: -0.034%
  creatine+creatinine, Saline/analog %: 0.043%
